Measured values published in US7067158B2, “Preparation for the relief of disease” (AKL Technologies Limited, priority 2001, dated 2006).

Key:
[1] = Treatment of laminitis in horses; type: in vivo; settings: horse L: on Bute for two months
Protocol: (§1) The loading dose is from three to ten days according to individual perceived clinical need. After the loading dose, the maintenance dose follows for a minimum (normally) of 30 days continuing as needed. The doses are scaled according to individual size/body weight. The dose was added as a powder in the animals' feed.
(§2) JMJ, FRA and D-Tox are available from Nutrilabs of Penrhos, Raglan, Monmouthshire. They are used to make the following Example compositions according to the invention, which were used in Examples A to AA below. The following gives a daily dose for a 450 kg horse. With any of the following Example Compositions during ANY acute phase, a loading dose of 3 times the daily dose may be used to assist a rapid return to ‘well being’.

platelets = test: Born aggregometry: ADP-induced platelet aggregation in platelet rich plasma (PRP); type: cell-based, human; settings: ADP 4×10^−6 M
Protocol: Extracts of components were prepared by stirring macerated samples overnight in methanol. The mixtures were centrifuged, the supernatants drawn off and dried to remove all traces of the extracting solvent. Resulting solids were re-suspended in normal saline (0.9% w/v NaCl) at saturated concentrations.
Extracts 2, 5 and 8 were reconstituted in 0.9% saline at saturated concentrations.
Citrated whole blood, from healthy volunteers, was spun at 900 rpm for 20 minutes to obtain platelet rich plasma (PRP). Born aggregometry was then carried out within 1 hour of blood being taken. Extracts 2, 5, and 8 were added to 450 μl PRP either singly (6 μl), or in combination with one other extract (3 μl each), or all the extracts in combination (2 μl each). PRP was then stimulated with ADP (Sigma) 4×10^−6 M. 6 μl of saline was added to PRP for the control. Aggregation was measured in a PAP4C aggregometer (BioData Corp. Horsham USA) over 10 minutes.
The dose of agonist was chosen to give slightly sub-optimal aggregation thus showing the maximum effect of any inhibition. Doses of extracts were chosen to show the effect on platelets when used alone and any added and/or synergistic effect of using combinations. All data is recorded as the maximum aggregation.

[2] = Treatment of COPD in horses; type: in vivo; settings: horse K: COPD
Protocol: as §1, §2

[3] = test system: Platelet Activating Factor (PAF); settings: cited from earlier work

CCCCC1C(=O)N(c2ccccc2)N(c2ccccc2)C1=O [Bute]
adverse reaction [1]: ulcers around the mouth and sores on the muzzle

COc1cc(C(C)=O)ccc1O [Extract 2, Apocynin]
effect on platelet aggregation in response to ADP (in words) (platelets): reduced platelet aggregation in response to ADP

CC(C)(C)NCC(O)c1cc(Cl)c(N)c(Cl)c1 (stereo not shown) [Ventipulmin, clenbuterol]
clinical outcome (owner report) [2]: had no effect

CC1C(=O)OC2C(O)C34C5CC(C(C)(C)C)C36C(OC(=O)C6O)OC4(C(=O)O5)C12O (stereo not shown) [ginkgolide B]
PAF inhibiting activity [3]: potent
